Assay results as given in patent US9725432B2, “Pyrimidine derivatives for the treatment of bacterial diseases” (JANSSEN R&D IRELAND, priority 2012, dated 2017).
Values after ≈ are worked out from the molar mass of the structure shown. Blank lines part the entries; values can stand above or below the molecule they belong to.

Key:
Staphylococcus aureus = assay: MIC determination of compounds on ECO/PAE/STA in microplates; format: cell-based; conditions: lowest concentration with no growth (90% inhibition of growth), 18-20 hours at 37° C., visual, strain not given

SMILES: CC(C)(C#N)CN1CCC(c2nc(-c3ccc(F)cc3)ncc2-c2cccc(C#N)c2)CC1 [Compound 80]
MIC90 (Staphylococcus aureus): 0.125 µg/mL (≈ 0.284 µM)
melting point: 171 °C

SMILES: CC(C)(C#N)CN1CCC(c2nc(-c3cncnc3)ncc2-c2cccc(C#N)c2)CC1 [Compound 82]
MIC90 (Staphylococcus aureus): 1 µg/mL (≈ 2.36 µM)
melting point: 182 °C

SMILES: COc1cccc(-c2cnc(-c3ccc(C#N)cc3)nc2C2CCN(CC(F)(F)F)CC2)c1 [Compound 83]
MIC90 (Staphylococcus aureus): 0.125 µg/mL (≈ 0.276 µM)
melting point: 180 to 182 °C

SMILES: N#Cc1ccc(-c2ncc(-c3cccc(C#N)c3)c(C3CCN(CC(F)(F)F)CC3)n2)cc1 [Compound 84]
MIC90 (Staphylococcus aureus): 0.125 µg/mL (≈ 0.279 µM)
melting point: 249 to 251 °C

Now from value to molecule:

MIC90 (Staphylococcus aureus): 0.125 µg/mL (≈ 0.276 µM)
melting point: 165 °C
SMILES: COc1ccc(-c2ncc(-c3cccc(C#N)c3)c(C3CCN(CC(C)(C)C#N)CC3)n2)cn1 [Compound 85]

MIC90 (Staphylococcus aureus): 0.125 µg/mL (≈ 0.277 µM)
melting point: 207 °C
SMILES: COc1cccc(-c2cnc(-c3ccc(C#N)cc3)nc2C2CCN(CC(C)(C)C#N)CC2)c1 [Compound 86]

MIC90 (Staphylococcus aureus): 2 µg/mL (≈ 4 µM)
melting point: 101 to 122 °C
SMILES: CC(C)(C#N)CN1CCC(c2nc(-c3ccc(S(C)(=O)=O)cc3)ncc2-c2cccc(C#N)c2)CC1 [Compound 87]
